Test results: patent publication US6303761A, “Triaminepentaacetic acid compound and paramagnetic metal complex prepared from using the compound as ligand” (Department of Health The Executive Yuan, Republic of China, priority 1999, dated 2001)
Values joined by “and” are separate entries in the source; they are usually repeats but may differ in a detail not shown here. Equal values may be shown once.

Assays:
[1] = in vivo; cited from earlier work
[2] = assay type: physicochemical; conditions: pH 7.4
[3] = system: liver; experiment: MR imaging, liver enhancement, healthy rat; assay type: in vivo; conditions: 0.1 mmol/kg
Procedure: (§1) Sodium pentobarbital was injected into the tail veins of […] rats (which have a healthy liver or tumorous liver) in a dosage of 40-50 mg/kg. The rats were placed on the head coil of an 1.5 T magnetic resonance imaging instrument. The T1-weighted (TR/Te, 15/6.1 msec) image was obtained by turbo field echo with the number of signal average. The field of view (FOV), the cross-sectional thickness, and the image matrix were 22 cm, 4 mm, and 128×256 respectively.
(§2) Before injecting the contrast agent, a set of T1-weighted baseline images were taken. In the first five minutes, the images were taken at a very short time interval in order to evaluate the dynamic enhancement condition. Afterwards, the images were taken every 10, 20, 30, 40, 50, and 60 minutes in order to observe the continuous enhancement effect.
(§3) By means of the computer software contained in the MRI instrument, the region of interest (ROI) can be determined by the operator. The signal intensities (SI) of liver, phantom, and kidney were measured. The enhancement percentage of an organ (liver or kidney) and the enhancement percentage of liver relative to kidney were calculated by the following equations. The statistical method used was Wilcoxon Signed Rank Test. [formula] [formula]

[4] = Relaxivity R1 and its pH dependence
[5] = system: kidney; experiment: MR imaging, kidney enhancement, healthy rat; assay type: in vivo; conditions: 0.1 mmol/kg
Procedure: as §1, §2, §3

In the case of O=C([O-])CN(CCN(CC(=O)[O-])CC(=O)[O-])CCN(CC(=O)[O-])CC(=O)[O-].[Gd+3] [[Gd(DTPA)]^2-], the LD50 [1] is listed as 5.6 mmol/kg, the “log K [GdL]/[Gd][L]” value (25.0 ± 0.1° C., aqueous Me4 NNO3, I = 0.10 mol dm^-3) is listed as 22.46 and the “conditional stability constant (log Kcond)” value (pH 4) is listed as 11.25. For the same compound, the “stability constant larger than that of [Gd(DTPA-BMA)] by” value (pH 7.4) was 3.2, the “stability constant under physiological conditions (pH 7.4)” value (pH 7.4) was 22.46 and the “stability constant (log KML) larger than that of [Gd(DTPA-BMA)] by” value (pH 11) was 5.5. For the same compound, the “modified selectivity constant log K sel'” value [2] was 7.07 and 7.04, the “time to maximum liver enhancement” value [3] was at most 1 min and the “liver enhancement after 30 minutes” value ([3]; 30 minutes) was 24±7%. The maximum liver enhancement ([3]; within 1 minute) was 57±9%, the “Relaxivity R1” value ([4]; pH 7.5 ± 0.1) was 3.71 dm^3 mmol^-1 s^-1 and 3.71 ± 0.05 dm^3 mmol^-1 s^-1 and the “Relaxivity R1 (conclusion)” value ([4]; pH not given) was 3.70 dm^3 mmol^-1 s^-1. The “time to maximum kidney enhancement” value [5] was 1 min and the “kidney enhancement at 30 minutes” value ([5]; 30 minutes) was 109±14%.
